Measurements from ChEMBL document CHEMBL1201861, “Genomics of Drug Sensitity in Cancer screening data, Wellcome Trust Sanger Institute”.

Experiments:
Assay in all cases: cells
[1] = test system: GCIY; format: functional, cell-based, Homo sapiens; settings: Homo sapiens, GCIY;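 note: growth inhibition of the human GCIY cell line, read out by a cell viability assay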
Description: SANGER: Inhibition of human GCIY cell growth in a cell viability assay.

[2] = test system: NB14; format: functional, cell-based; settings: Homo sapiens;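 note: growth inhibition of NB14 cells measured with a cell viability assay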
Description: SANGER: Inhibition of human NB14 cell growth in a cell viability assay.

[3] = test system: NCI-H510A; format: functional, cell-based; settings: Homo sapiens;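 note: growth inhibition of NCI-H510A cells, read out with a cell viability assay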
[4] = test system: OCUB-M; format: functional, cell-based, Homo sapiens; settings: Homo sapiens, OCUB-M;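 note: growth inhibition of the cancer cell line, read out through a cell viability assay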
Description: SANGER: Inhibition of human OCUB-M cell growth in a cell viability assay.

[5] = test system: RS4-11; format: functional, cell-based; settings: Homo sapiens;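 note: growth inhibition of RS4-11 cells, read out by a cell viability assay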
Description: SANGER: Inhibition of human RS4-11 cell growth in a cell viability assay.

[6] = test system: Calu-6; format: functional, cell-based, Homo sapiens; settings: Homo sapiens, Calu-6;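 note: growth of human Calu-6 cells, read out by a cell viability assay, IC50 marking inhibition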
Description: SANGER: Inhibition of human Calu-6 cell growth in a cell viability assay.

[7] = test system: NCI-H1648; format: functional, cell-based, Homo sapiens; settings: Homo sapiens, NCI-H1648;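 note: cell viability assay measuring inhibition of NCI-H1648 cell growth, from the Sanger screening data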
Description: SANGER: Inhibition of human NCI-H1648 cell growth in a cell viability assay.

[8] = test system: NKM-1; format: functional, cell-based; settings: Homo sapiens;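 note: growth inhibition of NKM-1 cells, read out with a cell viability assay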
[9] = test system: KY821; format: functional, cell-based; settings: Homo sapiens;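 note: growth inhibition of human KY821 cells, read out by a cell viability assay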
[10] = test system: A253 cell line; format: functional, cell-based, Homo sapiens; settings: Homo sapiens, A253;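 note: growth inhibition of A253 cells, read out with a cell viability assay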
Description: SANGER: Inhibition of human A253 cell growth in a cell viability assay.

[11] = test system: ES1; format: functional, cell-based, Homo sapiens; settings: Homo sapiens, ES1;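 note: growth inhibition of ES1 cells, read out with a cell viability assay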
Description: SANGER: Inhibition of human ES1 cell growth in a cell viability assay.

[12] = test system: ES8; format: functional, cell-based, Homo sapiens; settings: Homo sapiens, ES8;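 note: growth inhibition of human ES8 cells, read out with a cell viability assay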
Description: SANGER: Inhibition of human ES8 cell growth in a cell viability assay.

[13] = test system: J-RT3-T3-5; format: functional, cell-based; settings: Homo sapiens;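 note: cell viability assay measuring growth inhibition of human J-RT3-T3-5 cells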
Description: SANGER: Inhibition of human J-RT3-T3-5 cell growth in a cell viability assay.

[14] = test system: LU-134-A; format: functional, cell-based; settings: Homo sapiens
Description: SANGER: Inhibition of human LU-134-A cell growth in a cell viability assay.

[15] = test system: A498; format: functional, cell-based, Homo sapiens; settings: Homo sapiens, A498;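 note: growth inhibition of human A498 cells, read out with a cell viability assay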
Description: SANGER: Inhibition of human A498 cell growth in a cell viability assay.

[16] = test system: LB373-MEL-D; format: functional, cell-based, Homo sapiens; settings: Homo sapiens, LB373-MEL-D;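 note: growth inhibition of the cell line, read out in a cell viability assay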
Description: SANGER: Inhibition of human LB373-MEL-D cell growth in a cell viability assay.

[17] = test system: ML-2; format: functional, cell-based; settings: Homo sapiens;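 note: growth inhibition of ML-2 cells, measured with a cell viability readout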
Description: SANGER: Inhibition of human ML-2 cell growth in a cell viability assay.

[18] = test system: NCI-H1770; format: functional, cell-based; settings: Homo sapiens;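 note: growth inhibition of NCI-H1770 cells determined with a viability readout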
Description: SANGER: Inhibition of human NCI-H1770 cell growth in a cell viability assay.

[19] = test system: HCC1187; format: functional, cell-based, Homo sapiens; settings: Homo sapiens, HCC1187;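 note: growth inhibition of HCC1187 cells, read out with a cell viability assay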
Description: SANGER: Inhibition of human HCC1187 cell growth in a cell viability assay.

[20] = test system: A704; format: functional, cell-based, Homo sapiens; settings: Homo sapiens, A704;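 note: growth inhibition of human A704 cells, read out with a cell viability assay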
Description: SANGER: Inhibition of human A704 cell growth in a cell viability assay.

[21] = test system: HCE-4; format: functional, cell-based, Homo sapiens; settings: Homo sapiens, HCE-4;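 note: cell viability assay measuring inhibition of growth in the human HCE-4 cell line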
Description: SANGER: Inhibition of human HCE-4 cell growth in a cell viability assay.

SMILES | IC50 [1] [nM] | IC50 [2] [nM] | IC50 [3] [nM] | IC50 [4] [nM] | IC50 [5] [nM] | IC50 [6] [nM] | IC50 [7] [nM] | IC50 [8] [nM] | IC50 [9] [nM] | IC50 [10] [nM] | IC50 [11] [nM] | IC50 [12] [nM] | IC50 [13] [nM] | IC50 [14] [nM] | IC50 [15] [nM] | IC50 [16] [nM] | IC50 [17] [nM] | IC50 [18] [nM] | IC50 [19] [nM] | IC50 [20] [nM] | also measured
C=C1C(=O)O[C@@H]2C3O[C@]3(C)CC/C=C(\C)CC[C@@H]12 (stereo partly specified) | > 5000 | > 5000 | > 5000 | > 5000 | > 5000 | > 5000 | > 5000 | > 5000 | > 5000 | > 5000 | > 5000 | > 5000 | > 5000 | > 5000 | > 5000 | > 5000 | > 5000 | > 5000 | > 5000 |  | 
CC1=C2C[C@H]3[C@@H](CC=C4C[C@@H](O)CC[C@@]43C)[C@@H]2CC[C@]12O[C@@H]1C[C@H](C)CN[C@H]1[C@H]2C [CYCLOPAMINE] | > 16000 | > 16000 | > 16000 | > 16000 | > 16000 | > 16000 | > 16000 | > 16000 | > 16000 | > 16000 | > 16000 | > 16000 | > 16000 | > 16000 | > 16000 | > 16000 | > 16000 | > 16000 | > 16000 |  | 
CS(=O)(=O)CCNCc1ccc(-c2ccc3ncnc(Nc4ccc(OCc5cccc(F)c5)c(Cl)c4)c3c2)o1 [LAPATINIB] | > 2000 | > 2000 | > 2000 | 57.4 | > 2000 | > 2000 | 25.4 | > 2000 | > 2000 | 1970 | > 2000 | > 2000 | > 2000 | > 2000 |  | > 2000 | > 2000 | > 2000 | > 2000 |  | 
CCc1nc(N)nc(N)c1-c1ccc(Cl)cc1 [PYRIMETHAMINE] | > 20000 | > 20000 | > 20000 | > 20000 | > 20000 | > 20000 | > 20000 | > 20000 | > 20000 | > 20000 | 123 | 897 | 2220 | > 20000 | > 20000 | > 20000 | 11500 | > 20000 | > 20000 |  | 
O=C(/C=C/c1ccccc1)NC(NC(=S)Nc1cccc2cccnc12)C(Cl)(Cl)Cl (stereo unspecified) [SALUBRINAL] | > 16000 | > 16000 | 7040 | > 16000 | > 16000 | > 16000 | > 16000 | 10600 | > 16000 | > 16000 | > 16000 | 8640 | 14700 | > 16000 | > 16000 | > 16000 | 4620 | > 16000 | > 16000 |  | 
CN1CCN(CCOc2cc(OC3CCOCC3)c3c(Nc4c(Cl)ccc5c4OCO5)ncnc3c2)CC1 [SARACATINIB] | > 2000 | > 2000 | > 2000 | > 2000 | > 2000 | > 2000 | 281 | > 2000 | > 2000 | > 2000 | > 2000 | > 2000 | > 2000 | > 2000 | > 2000 | > 2000 | > 2000 | > 2000 | > 2000 | 892 | IC50 [21]: > 2000 nM
CO[C@H]1C[C@@H]2CC[C@@H](C)[C@@](O)(O2)C(=O)C(=O)N2CCCC[C@H]2C(=O)O[C@H]([C@H](C)C[C@@H]2CC[C@@H](O)[C@H](OC)C2)CC(=O)[C@H](C)/C=C(\C)[C@@H](O)[C@@H](OC)C(=O)[C@H](C)C[C@H](C)/C=C/C=C/C=C/1C [SIROLIMUS] | 53.5 | > 100 | > 100 | < 0.391 | > 100 | > 100 | > 100 | > 100 | > 100 | > 100 | > 100 | > 100 | 6.46 | > 100 | > 100 | > 100 | > 100 | > 100 | > 100 | > 100 | IC50 [21]: > 100 nM
CNC(=O)c1cc(Oc2ccc(NC(=O)Nc3ccc(Cl)c(C(F)(F)F)c3)cc2)ccn1 [SORAFENIB] | > 4000 | > 4000 | > 4000 | > 4000 |  | > 4000 | > 4000 | 74.2 | > 4000 | > 4000 | > 4000 | > 4000 | > 4000 | > 4000 | > 4000 | > 4000 | > 4000 | > 4000 | > 4000 |  | 
CCC(=O)N1CCN(c2ccc(-n3c(=O)ccc4cnc5ccc(-c6cnc7ccccc7c6)cc5c43)cc2C(F)(F)F)CC1 [TORIN1] | 10.1 | > 1200 | 772 | 1.94 | 59.4 | 165 | 36.2 | 987 | 220 | 989 | 31 | 18.4 | 91.5 | 553 | > 1200 | 155 | 140 | > 1200 | 468 | 97.4 | IC50 [21]: 38.6 nM
Cc1cc(Nc2cc(N3CCN(C)CC3)nc(Sc3ccc(NC(=O)C4CC4)cc3)n2)n[nH]1 [TOZASERTIB] | > 2000 | > 2000 | 438 | 170 | 4.04 | > 2000 | > 2000 | 1030 | > 2000 | > 2000 | > 2000 | 46.1 | > 2000 | > 2000 | > 2000 | > 2000 | 903 | > 2000 | 1010 | > 2000 | IC50 [21]: 881 nM
